From article PMC9283466, “In silico identification of two peptides with antibacterial activity against multidrug-resistant Staphylococcus aureus” (NPJ Biofilms and Microbiomes, 2022)
In brackets after ≈: the same amount, converted by molar mass. Bridge positions count the residues as written; N and C are the ends. Peptide text beside a SMILES is read from it.

Key:
MRSA USA300 cells = assay: Serial passage / resistance assay; assay type: cell-based, Staphylococcus aureus; conditions: for fold increase in MIC during serial passage: sub-MIC exposure over 20 days, MRSA USA300; for resistant mutants after serial passage: sub-lethal doses over a period of 20 days
Description: In vitro evaluation of the potential for MRSA USA3000 cells to develop resistance to HG2 and HG4 was performed as follows. […] Cultures from the highest concentration that supported growth were diluted 1: 1000 in MHB and used to provide the inoculum for the next passage day. This process was performed for a total duration of 20 days. Any putative mutants recovered were isolated via streak dilution for three generations on MHA, prior to further characterisation.

[1] = test system: P. aeruginosa (CF) LES400; assay: microbe, parasite or virus in culture; assay type: cell-based, Pseudomonas aeruginosa; conditions: CF) LES400
Description: (§1) To determine the antimicrobial activity of the new antimicrobial peptides, HG2 and HG4, their minimum inhibitory concentrations (MICs) were determined by broth microdilution method[51] in cation adjusted Mueller Hinton broth (MHB) following the International Organisation for Standardisation (ISO) 20776-1 standard for MIC testing using a final bacterial inoculum of 5 × 10^5 CFU/ml[52]. […] The peptides dissolved in sterile distilled water were added to bacteria culture and incubated overnight at appropriate conditions. The MICs of the peptides and comparator antibiotics were recorded after 18–24 h. The minimum bactericidal concentrations (MBCs) were also determined and were taken as the lowest concentration of the antimicrobial that prevented the growth of bacterial cells after the subculture of cells (from MIC treatment) onto antibiotic-free media.

P. aeruginosa (CF) C3719 = assay: microbe, parasite or virus in culture; assay type: cell-based, Pseudomonas aeruginosa; conditions: CF) C3719
Description: as §1

[2] = test system: P. aeruginosa (CF) AMT0060; assay: microbe, parasite or virus in culture; assay type: cell-based, Pseudomonas aeruginosa; conditions: CF) AMT0060
Description: as §1

P. aeruginosa PA01 = assay: microbe, parasite or virus in culture; assay type: cell-based, Pseudomonas aeruginosa
Description: as §1

K. pneumoniae NCTC 13442 = assay: microbe, parasite or virus in culture; assay type: cell-based, Klebsiella pneumoniae; conditions: NCTC 13442
Description: as §1

[3] = test system: K. pneumoniae ATCC 700603; assay: microbe, parasite or virus in culture; assay type: cell-based, Klebsiella pneumoniae; conditions: ATCC 700603
Description: as §1

K. pneumoniae 526903 = assay: microbe, parasite or virus in culture; assay type: cell-based, Klebsiella pneumoniae; conditions: 526903
Description: as §1

K. pneumoniae 518842 = assay: microbe, parasite or virus in culture; assay type: cell-based, Klebsiella pneumoniae; conditions: 518842
Description: as §1

[4] = Peptide-lipid interaction and insertion, lipid monolayer; assay type: binding, Staphylococcus aureus; conditions: MRSA extract; initial surface pressure 30+/-0.5 mN/m
Description: (§2) Peptide–lipid interaction was measured using a lipid monolayer formed at the air:water interface with total lipid extracts and pure lipids. Total lipids were extracted from overnight cultures of MRSA or human erythrocytes using the Folch extraction procedure[14],[40]. Extracted total lipids were dried, re-solubilised in chloroform:methanol (2:1, v/v) and stored at −20 °C under nitrogen. […] The variation of the surface pressure caused by peptide insertion was then continuously monitored using a fully automated microtensiometer (µTROUGH SX, Kibron Inc, Finland) until it reached equilibrium (maximal surface pressure increase is usually obtained after 15–25 min). […] In other experiments, the critical pressure of insertion of HG2 or HG4 in the total lipid extracts and pure lipids was measured as follows[14],[56]. Briefly, in these experiments, the initial pressure of the lipid monolayer was set up at different values (between 10 and 30 mN/m) and the variation of pressure caused by the injection of the peptide was measured. […] All experiments were carried out in a controlled atmosphere at 20 ± 1 °C and data were analyzed using the Firmware 2.5 programme (Kibron Inc.). The accuracy of the system under our experimental conditions was determined to be ±0.25 mN/m for surface pressure measurements.

[5] = as above; assay type: binding; conditions: for Speed of insertion: initial surface pressure 30+/-0.5 mN/m; for Critical pressure of insertion πc: peptide 1 µg/mL
Description: Peptide–lipid interaction was measured using a lipid monolayer formed at the air:water interface with total lipid extracts and pure lipids. Total lipids were extracted from overnight cultures of MRSA or human erythrocytes using the Folch extraction procedure[14],[40]. Extracted total lipids were dried, re-solubilised in chloroform:methanol (2:1, v/v) and stored at −20 °C under nitrogen. Pure prokaryotic and eukaryotic lipids used were: cardiolipin, POPC (1-palmitoyl-2-oleoyl-glycero-3-phosphocholine), POPE (1-palmitoyl-2-oleoyl-sn-glycero-3-phosphoethanolamine) and POPG (1-palmitoyl-2-oleoyl-sn-glycero-3-phospho-(1’-rac-glycerol) (Avanti Polar Lipid). LTA (Lipoteichoic acid from S. aureus) and LPS (lipopolysaccharide from E. coli) (Invitrogen, UK) were also tested. Pure lipids were reconstituted in chloroform:methanol (2:1 v/v) at 1 mg/ml and stored at −20 °C under nitrogen. For peptide–lipid interaction assay, lipid monolayers at the air:water interface were formed by spreading total lipid extract or pure lipids at the surface of 800 µl of sterile PBS using a 50 µl Hamilton’s syringe. Lipids were added until the surface pressure reached the desired value. After 5–10 min of incubation allowing the evaporation of the solvent and stabilisation of the initial surface pressure, 8 µl of HG2 or HG4 diluted in sterile PBS at 100 µg/ml were injected into the 800 µl sub-phase of PBS under the lipid monolayer (pH 7.4, volume 800 µl) using a 10 µl Hamilton’s syringe giving a final concentration of peptide of 1 µg/ml, as preliminary experiments had shown that this concentration was optimal. The variation of the surface pressure caused by peptide insertion was then continuously monitored using a fully automated microtensiometer (µTROUGH SX, Kibron Inc, Finland) until it reached equilibrium (maximal surface pressure increase is usually obtained after 15–25 min). To reflect physiological situations, the initial surface pressure was fixed at 30 ± 0.5 mN/m in some experiments as this value corresponds to a lipid packing density theoretically equivalent to that of the outer leaflet of the eukaryotic and prokaryotic cell membrane. In other experiments, the critical pressure of insertion of HG2 or HG4 in the total lipid extracts and pure lipids was measured as follows[14],[56]. Briefly, in these experiments, the initial pressure of the lipid monolayer was set up at different values (between 10 and 30 mN/m) and the variation of pressure caused by the injection of the peptide was measured. […] All experiments were carried out in a controlled atmosphere at 20 ± 1 °C and data were analyzed using the Firmware 2.5 programme (Kibron Inc.). The accuracy of the system under our experimental conditions was determined to be ±0.25 mN/m for surface pressure measurements.

[6] = Pure lipid preference order from critical pressure of insertion; assay type: binding; conditions: pure bacterial and eukaryotic lipids
Description: as §2

Structure (SMILES): CC[C@H](C)[C@H](NC(=O)[C@H](CC(C)C)NC(=O)[C@H](CC(C)C)NC(=O)[C@H](CC(C)C)NC(=O)[C@H](CCCCN)NC(=O)[C@H](CCCCN)NC(=O)[C@@H](N)CCSC)C(=O)N[C@@H](CC(C)C)C(=O)N[C@@H](Cc1ccccc1)C(=O)N[C@H]1CSSC[C@@H](C(=O)N[C@@H](CCCCN)C(=O)N[C@@H](CCCCN)C(=O)N[C@@H](C)C(=O)N2CCC[C@H]2C(N)=O)NC(=O)CNC(=O)[C@H](C)NC(=O)[C@H](CC(C)C)NC(=O)[C@H](C)NC(=O)[C@H](CC(C)C)NC(=O)[C@H](C)NC(=O)[C@H](CC(C)C)NC1=O [HG2] (H-MKKLLLILFCLALALAGCKKAP-NH2; disulfide 10-18; N-terminus assumed)
- fold increase in MIC during serial passage (MRSA USA300 cells): 1–2 fold
- resistant mutants after serial passage (MRSA USA300 cells): did not produce resistant mutants
- MIC [1]: 64 µg/mL (≈ 27.2 µM)
- MIC (P. aeruginosa (CF) C3719): 64 µg/mL (≈ 27.2 µM)
- MIC [2]: 256 µg/mL (≈ 109 µM)
- MIC (P. aeruginosa PA01): >512 µg/mL
- MIC (K. pneumoniae NCTC 13442): 512 µg/mL (≈ 217 µM)
- MIC [3]: >512 µg/mL
- MIC (K. pneumoniae 526903): >512 µg/mL
- MIC (K. pneumoniae 518842): 512 µg/mL (≈ 217 µM)
- Speed of insertion [4]: 3.36 mN/m/10 sec
- Speed of insertion ([5]; Cardiolipin): 4.74 mN/m/10 sec
- Critical pressure of insertion πc ([5]; Cardiolipin): 41.30 mN/m
- Speed of insertion ([5]; PC): 8.58 mN/m/10 sec
- Critical pressure of insertion πc ([5]; PC): 62.79 mN/m
- Speed of insertion ([5]; PE): 1.89 mN/m/10 sec
- Critical pressure of insertion πc ([5]; PE): 39.49 mN/m
- Speed of insertion ([5]; PG): 3.70 mN/m/10 sec
- Critical pressure of insertion πc ([5]; PG): 51.19 mN/m
- order of preference for pure lipids (critical pressure of insertion) [6]: PC > PG > LTA > Cardio > PE > LPS

Structure (SMILES): CC[C@H](C)[C@H](NC(=O)[C@H](CC(C)C)NC(=O)[C@H](CC(C)C)NC(=O)[C@H](C)NC(=O)CNC(=O)CNC(=O)[C@@H](NC(=O)[C@@H](NC(=O)[C@H](CC(C)C)NC(=O)[C@H](C)NC(=O)[C@H](CC(C)C)NC(=O)CNC(=O)[C@H](CC(C)C)NC(=O)[C@@H](N)C(C)C)[C@@H](C)CC)C(C)C)C(=O)N[C@@H](CCCCN)C(=O)N[C@@H](CCCCN)C(=O)N[C@@H](CCCCN)C(=O)N[C@@H](CCC(N)=O)C(=O)N[C@@H](C)C(=O)N[C@@H](CCCCN)C(=O)N[C@@H](CO)C(N)=O [HG4] (H-VLGLALIVGGALLIKKKQAKS-NH2; N-terminus and C-terminus assumed)
- fold increase in MIC during serial passage (MRSA USA300 cells): 1–2 fold
- resistant mutants after serial passage (MRSA USA300 cells): did not produce resistant mutants
- MIC [1]: 128 µg/mL (≈ 60.4 µM)
- MIC (P. aeruginosa (CF) C3719): 128 µg/mL (≈ 60.4 µM)
- MIC [2]: 256 µg/mL (≈ 121 µM)
- MIC (P. aeruginosa PA01): >512 µg/mL
- MIC (K. pneumoniae NCTC 13442): 512 µg/mL (≈ 242 µM)
- MIC [3]: >512 µg/mL
- MIC (K. pneumoniae 526903): 512 µg/mL (≈ 242 µM)
- MIC (K. pneumoniae 518842): 512 µg/mL (≈ 242 µM)
- Speed of insertion [4]: 1.69 mN/m/10 sec
- Speed of insertion ([5]; Cardiolipin): 2.44 mN/m/10 sec
- Critical pressure of insertion πc ([5]; Cardiolipin): 46.49 mN/m
- Speed of insertion ([5]; PC): 0.50 mN/m/10 sec
- Critical pressure of insertion πc ([5]; PC): 28.8 mN/m
- Speed of insertion ([5]; PE): 0.20 mN/m/10 sec
- Critical pressure of insertion πc ([5]; PE): 33.9 mN/m
- Speed of insertion ([5]; PG): 2.48 mN/m/10 sec
- Critical pressure of insertion πc ([5]; PG): 47.55 mN/m
- order of preference for pure lipids (critical pressure of insertion) [6]: PG > cardiolipin > LTA > LPS > PE > PC
